Columns and labels:
Format in all cases: cell-based
[1] = target: T1, HER2 S310F (Homo sapiens, UniProt P04626, S310F); test: BaF3 cell proliferation assay, HER2 S310F (Table B); conditions: potency code, 3 days, CellTiterGlo, read-out: HER2 S310F (Activity for Inhibiting HER2)
T1 construct: expressed in transfected cells; host or cells: BaF3 (murine pro-B)

[2] = target: T2, EGFR WT (Homo sapiens, UniProt P00533); test: Activity for inhibiting EGFR (Table A), EGFR WT; conditions: read-out: EGFR WT, potency code (IC50)
[3] = target: T3, HER2 YVMA (Homo sapiens, UniProt P04626, INS775YVMA); test: BaF3 cell proliferation assay, HER2 YVMA (Table B); conditions: potency code, 3 days, CellTiterGlo, read-out: HER2 YVMA (Activity for Inhibiting HER2)
T3 construct: expressed in transfected cells; host or cells: BaF3 (murine pro-B)

[4] = target: T1, HER2 S310F; test: Activity for inhibiting HER2 (Table B), HER2 S310F; conditions: read-out: HER2 S310F, potency code (IC50)
Description: (§1) EC50 values were determined with the same application.

[5] = target: T4, EGFR V3 (Homo sapiens, UniProt P00533, DELINS30-297G); test: Activity for inhibiting EGFR (Table A), EGFR V3 (EGFR-Viii); conditions: read-out: EGFR V3, potency code (IC50)
T4 construct: expressed in transfected cells; host or cells: BaF3 (murine pro-B), retroviral pMXs-IRES-Blasticidin

[6] = target: T2, EGFR WT; test: BaF3 cell proliferation assay, EGFR WT (Table A); conditions: potency code, 3 days, CellTiterGlo, read-out: EGFR WT (Activity for Inhibiting EGFR)
Method in brief: (§2)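 EC50s reflect growth of IL-3-independent BaF3 lines whose proliferation depends on the introduced human receptor variant. Lines were produced by retroviral infection and one week of 10 μg/ml Blasticidin selection.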

[7] = target: T4, EGFR V3; test: BaF3 cell proliferation assay, EGFR V3 (Table A); conditions: potency code, 3 days, CellTiterGlo, read-out: EGFR V3 (Activity for Inhibiting EGFR)
Method in brief: as §2

[8] = target: T3, HER2 YVMA; test: Activity for inhibiting HER2 (Table B), HER2 YVMA; conditions: read-out: HER2 YVMA, potency code (IC50)
Description: as §1

T4 sequence (P00533 with tags, fused parts or gaps DELINS30-297G): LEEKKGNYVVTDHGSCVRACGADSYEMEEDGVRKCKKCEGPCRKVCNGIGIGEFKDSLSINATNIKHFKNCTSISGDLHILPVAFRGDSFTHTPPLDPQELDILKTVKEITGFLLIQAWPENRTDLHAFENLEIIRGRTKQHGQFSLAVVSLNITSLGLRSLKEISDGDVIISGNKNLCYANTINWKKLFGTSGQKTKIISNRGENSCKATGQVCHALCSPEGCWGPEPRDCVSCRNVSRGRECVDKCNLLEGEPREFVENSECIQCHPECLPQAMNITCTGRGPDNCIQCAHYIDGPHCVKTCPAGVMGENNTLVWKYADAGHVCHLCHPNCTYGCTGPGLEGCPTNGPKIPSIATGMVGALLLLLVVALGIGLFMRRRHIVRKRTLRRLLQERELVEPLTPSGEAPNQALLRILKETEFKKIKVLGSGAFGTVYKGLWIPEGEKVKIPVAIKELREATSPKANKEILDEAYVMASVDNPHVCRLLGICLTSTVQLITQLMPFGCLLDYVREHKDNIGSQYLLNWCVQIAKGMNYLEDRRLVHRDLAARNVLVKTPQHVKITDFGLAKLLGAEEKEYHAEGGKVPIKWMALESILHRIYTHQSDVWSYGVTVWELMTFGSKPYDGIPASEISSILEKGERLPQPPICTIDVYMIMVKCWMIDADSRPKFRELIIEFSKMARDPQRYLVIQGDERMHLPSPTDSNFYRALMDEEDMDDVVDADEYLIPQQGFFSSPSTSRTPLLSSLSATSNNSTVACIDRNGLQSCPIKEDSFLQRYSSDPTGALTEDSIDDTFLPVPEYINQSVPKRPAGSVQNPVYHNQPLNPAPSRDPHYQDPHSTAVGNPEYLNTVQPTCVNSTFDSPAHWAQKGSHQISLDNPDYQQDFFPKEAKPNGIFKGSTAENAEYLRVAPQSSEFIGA
T2 sequence (P00533 25-1210 N540K): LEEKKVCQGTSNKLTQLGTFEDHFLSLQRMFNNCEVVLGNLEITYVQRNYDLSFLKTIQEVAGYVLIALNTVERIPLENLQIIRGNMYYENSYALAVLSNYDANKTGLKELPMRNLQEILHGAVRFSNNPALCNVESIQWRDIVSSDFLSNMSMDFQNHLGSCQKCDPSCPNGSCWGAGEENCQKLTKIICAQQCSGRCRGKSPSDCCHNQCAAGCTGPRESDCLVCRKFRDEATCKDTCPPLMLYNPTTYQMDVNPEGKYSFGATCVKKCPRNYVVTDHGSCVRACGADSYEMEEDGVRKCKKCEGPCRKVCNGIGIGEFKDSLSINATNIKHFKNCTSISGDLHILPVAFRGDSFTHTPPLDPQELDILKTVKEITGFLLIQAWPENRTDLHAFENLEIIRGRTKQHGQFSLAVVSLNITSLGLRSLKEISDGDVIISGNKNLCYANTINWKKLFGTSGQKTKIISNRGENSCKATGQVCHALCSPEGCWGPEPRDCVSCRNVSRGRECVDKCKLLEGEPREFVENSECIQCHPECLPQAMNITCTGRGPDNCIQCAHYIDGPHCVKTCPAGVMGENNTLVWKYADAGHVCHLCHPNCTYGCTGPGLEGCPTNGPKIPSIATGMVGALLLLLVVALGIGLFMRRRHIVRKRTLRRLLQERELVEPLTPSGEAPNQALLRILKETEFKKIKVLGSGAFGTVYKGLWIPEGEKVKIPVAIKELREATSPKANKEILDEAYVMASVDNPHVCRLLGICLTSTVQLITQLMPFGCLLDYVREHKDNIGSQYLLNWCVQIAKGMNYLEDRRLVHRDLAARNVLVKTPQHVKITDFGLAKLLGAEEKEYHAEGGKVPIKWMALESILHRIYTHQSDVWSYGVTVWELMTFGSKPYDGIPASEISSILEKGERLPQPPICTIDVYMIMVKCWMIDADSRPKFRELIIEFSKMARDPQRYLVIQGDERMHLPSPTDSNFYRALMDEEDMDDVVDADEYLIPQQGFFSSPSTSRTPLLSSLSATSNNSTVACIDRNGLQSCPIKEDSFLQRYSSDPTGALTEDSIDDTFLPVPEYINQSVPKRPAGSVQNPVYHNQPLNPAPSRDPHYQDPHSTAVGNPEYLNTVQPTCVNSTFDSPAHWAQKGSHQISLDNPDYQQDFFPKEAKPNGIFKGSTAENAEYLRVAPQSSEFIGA
T3 sequence (P04626 with tags, fused parts or gaps INS775YVMA): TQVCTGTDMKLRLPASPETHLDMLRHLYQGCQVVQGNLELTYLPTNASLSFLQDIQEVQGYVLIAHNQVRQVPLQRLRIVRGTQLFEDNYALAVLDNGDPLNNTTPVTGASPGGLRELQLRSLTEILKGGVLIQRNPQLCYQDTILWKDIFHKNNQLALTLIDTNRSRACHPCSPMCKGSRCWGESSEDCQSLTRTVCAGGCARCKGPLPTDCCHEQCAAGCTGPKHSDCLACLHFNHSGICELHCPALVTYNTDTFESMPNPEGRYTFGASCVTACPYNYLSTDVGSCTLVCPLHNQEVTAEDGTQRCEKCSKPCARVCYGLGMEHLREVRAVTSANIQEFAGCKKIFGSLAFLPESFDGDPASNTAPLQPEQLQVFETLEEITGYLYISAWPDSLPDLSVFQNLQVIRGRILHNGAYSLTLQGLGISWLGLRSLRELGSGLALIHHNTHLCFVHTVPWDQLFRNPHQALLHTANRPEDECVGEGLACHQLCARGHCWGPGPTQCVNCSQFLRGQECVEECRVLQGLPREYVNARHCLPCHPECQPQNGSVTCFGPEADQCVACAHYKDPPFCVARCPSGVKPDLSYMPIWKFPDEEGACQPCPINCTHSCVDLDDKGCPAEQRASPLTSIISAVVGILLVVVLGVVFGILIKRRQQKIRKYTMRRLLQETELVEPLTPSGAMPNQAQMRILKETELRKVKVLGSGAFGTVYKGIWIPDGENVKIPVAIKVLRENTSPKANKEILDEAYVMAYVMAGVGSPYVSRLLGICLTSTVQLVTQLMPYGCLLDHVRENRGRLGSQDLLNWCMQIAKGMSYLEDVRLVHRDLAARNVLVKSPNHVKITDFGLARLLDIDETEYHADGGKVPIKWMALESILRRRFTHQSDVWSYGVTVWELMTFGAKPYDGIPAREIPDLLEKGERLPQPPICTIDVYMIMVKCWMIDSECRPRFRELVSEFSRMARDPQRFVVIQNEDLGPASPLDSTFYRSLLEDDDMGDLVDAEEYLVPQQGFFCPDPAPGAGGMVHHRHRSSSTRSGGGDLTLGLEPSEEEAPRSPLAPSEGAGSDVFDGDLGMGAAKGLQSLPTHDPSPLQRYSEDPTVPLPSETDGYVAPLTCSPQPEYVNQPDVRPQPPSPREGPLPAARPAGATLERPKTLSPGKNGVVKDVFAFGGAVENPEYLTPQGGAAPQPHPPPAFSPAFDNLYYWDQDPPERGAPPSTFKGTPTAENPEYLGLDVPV
T1 sequence (P04626 23-1255 S310F): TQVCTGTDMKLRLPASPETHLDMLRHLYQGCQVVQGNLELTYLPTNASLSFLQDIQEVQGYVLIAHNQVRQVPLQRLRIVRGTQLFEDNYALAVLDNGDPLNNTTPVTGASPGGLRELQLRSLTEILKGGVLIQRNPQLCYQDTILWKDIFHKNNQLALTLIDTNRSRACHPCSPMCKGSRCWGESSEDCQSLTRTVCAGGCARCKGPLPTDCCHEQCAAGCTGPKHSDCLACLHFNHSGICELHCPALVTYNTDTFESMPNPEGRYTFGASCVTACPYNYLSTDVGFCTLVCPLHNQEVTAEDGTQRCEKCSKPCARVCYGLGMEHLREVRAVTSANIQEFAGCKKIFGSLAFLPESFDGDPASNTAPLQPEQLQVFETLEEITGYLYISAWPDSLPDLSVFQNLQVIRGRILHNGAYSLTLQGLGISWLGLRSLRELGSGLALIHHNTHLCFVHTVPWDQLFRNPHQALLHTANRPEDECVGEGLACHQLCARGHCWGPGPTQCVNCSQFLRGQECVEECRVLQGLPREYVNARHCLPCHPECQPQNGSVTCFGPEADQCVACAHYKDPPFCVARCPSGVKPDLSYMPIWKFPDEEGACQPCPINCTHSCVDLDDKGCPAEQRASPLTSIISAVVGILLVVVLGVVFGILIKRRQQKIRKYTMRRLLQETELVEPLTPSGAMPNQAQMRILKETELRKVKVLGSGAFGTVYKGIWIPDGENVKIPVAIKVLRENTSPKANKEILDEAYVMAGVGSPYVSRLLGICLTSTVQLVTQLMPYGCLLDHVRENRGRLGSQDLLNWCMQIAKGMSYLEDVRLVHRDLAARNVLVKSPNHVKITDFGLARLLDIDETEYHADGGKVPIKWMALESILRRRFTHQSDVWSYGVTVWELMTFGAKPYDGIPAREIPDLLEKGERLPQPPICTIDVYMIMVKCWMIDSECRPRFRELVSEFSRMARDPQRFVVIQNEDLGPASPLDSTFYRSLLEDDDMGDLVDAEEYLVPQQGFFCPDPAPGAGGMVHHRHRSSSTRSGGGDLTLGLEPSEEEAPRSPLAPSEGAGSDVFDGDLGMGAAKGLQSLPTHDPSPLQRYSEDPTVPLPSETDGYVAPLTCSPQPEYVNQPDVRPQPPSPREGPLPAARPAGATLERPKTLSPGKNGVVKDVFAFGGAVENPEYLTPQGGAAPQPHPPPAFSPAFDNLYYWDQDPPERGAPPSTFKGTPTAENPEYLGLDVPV

Row | SMILES | IC50 [1] [nM] | IC50 [2] [nM] | IC50 [3] [nM] | IC50 [4] [nM] | IC50 [5] [nM] | IC50 [6] [nM] | IC50 [7] [nM] | IC50 [8] [nM]
1 | C=CC(=O)Nc1cc2c(Nc3ccc(Oc4cccnc4)cc3)ncnc2cc1OCCN1CCOCC1 [compound 75] | 100 to 200 | > 1000 | 300 to 500 | 100 to 200 | 100 to 200 | > 1000 | 100 to 200 | 300 to 500
2 | C=CC(=O)Nc1cc2c(Nc3ccc(Oc4ccccc4)cc3)ncnc2cc1C#C[C@@H]1[C@H]2CN(C)C[C@@H]12 [compound 106, N-(7-(((1R,5S,6s)-3-methyl-3-azabicyclo[3.1.0]hexan-6-yl)ethynyl)-4-((4-phenoxyphenyl)amino)quinazolin-6-yl)acrylamide] | 30 to 50 | 100 to 200 | 100 to 200 | 30 to 50 | 30 to 50 | 100 to 200 | 30 to 50 | 100 to 200
3 | C=CC(=O)Nc1cc2c(Nc3ccc(OCc4ccccn4)c(Cl)c3)ncnc2cc1N1CC2(CN(C)C2)C1 [compound 45] | 300 to 500 | 500 to 1000 | > 1000 | 300 to 500 | 200 to 300 | 500 to 1000 | 200 to 300 | > 1000
4 | C=CC(=O)Nc1cc2c(Nc3ccc(OCc4ccccn4)nc3)ncnc2cc1OCCN1CCOCC1 [compound 71] | 200 to 300 | 500 to 1000 | > 1000 | 200 to 300 | 50 to 100 | 500 to 1000 | 50 to 100 | > 1000
5 | C=CC(=O)Nc1cc2c(Nc3ccc(OCc4cccc(C)n4)c(Cl)c3)ncnc2cc1OCCN1CCOCC1 [compound 128] | 100 to 200 | 500 to 1000 | 300 to 500 | 100 to 200 | 100 to 200 | 500 to 1000 | 100 to 200 | 300 to 500
6 | C=CC(=O)Nc1cc2c(Nc3ccc(OCc4cccc(F)c4)c(Cl)c3)ncnc2cc1OCCN1CC(OC)C1 [compound 143] | 30 to 50 | 200 to 300 | 100 to 200 | 30 to 50 | 50 to 100 | 200 to 300 | 50 to 100 | 100 to 200
7 | C=CC(=O)Nc1cc2c(Nc3ccc(Oc4ccc(Cl)c(F)c4)cc3)ncnc2cc1OCCN1CCOCC1 [compound 127] | 300 to 500 | 500 to 1000 | > 1000 | 300 to 500 | 50 to 100 | 500 to 1000 | 50 to 100 | > 1000
8 | C=CC(=O)Nc1cc2c(Nc3ccc(OCc4cccc(F)n4)c(Cl)c3)ncnc2cc1OCCCN1C[C@@H]2C[C@H]1CO2 [compound 161] | 30 to 50 | 200 to 300 | 100 to 200 | 30 to 50 | 30 to 50 | 200 to 300 | 30 to 50 | 100 to 200
9 | C=CC(=O)Nc1cc2c(Nc3cc(Cl)c(OCc4cccc(F)c4)cc3F)ncnc2cc1O[C@@H]1CCN(C)C1 [compound 133] | 50 to 100 | 200 to 300 | 500 to 1000 | 50 to 100 | 100 to 200 | 200 to 300 | 100 to 200 | 500 to 1000
10 | C=CC(=O)Nc1cc2c(Nc3ccc(OCc4ccccn4)c(Cl)c3)ncnc2cc1OCC1CN(C)C1 [compound 123, N-(4-((3-chloro-4-(pyridin-2-ylmethoxy)phenyl)amino)-7-((1-methylazetidin-3-yl)methoxy)quinazolin-6-yl) Acrylamide] | 30 to 50 | 200 to 300 | 100 to 200 | 30 to 50 | 30 to 50 | 200 to 300 | 30 to 50 | 100 to 200
11 | C=CC(=O)Nc1cc2c(Nc3ccc(OCc4cccc(F)c4)c(Cl)c3)ncnc2cc1OCCCN1C[C@H]2C[C@@H]1CO2 [compound 160] | 100 to 200 | 300 to 500 | 300 to 500 | 100 to 200 | 100 to 200 | 300 to 500 | 100 to 200 | 300 to 500
12 | C=CC(=O)Nc1cc2c(Nc3ccc(Oc4ccccc4)c(C)c3)ncnc2cc1C#C[C@@H]1[C@H]2CN(C)C[C@@H]12 [compound 117, N-(7-(((1R,5S,6s)-3-methyl-3-azabicyclo[3.1.0]hexan-6-yl)ethynyl)-4-((3-methyl-4-phenoxyphenyl)amino)quinazolin-6-yl)acrylamide] | 50 to 100 | 500 to 1000 | 100 to 200 | 50 to 100 | 100 to 200 | 500 to 1000 | 100 to 200 | 100 to 200
13 | C=CC(=O)Nc1cc2c(Nc3ccc(OCc4cccc(F)n4)c(Cl)c3)ncnc2cc1OCCN1CCOCC1 [compound 154] | 30 to 50 | 500 to 1000 | 100 to 200 | 30 to 50 | 30 to 50 | 500 to 1000 | 30 to 50 | 100 to 200
14 | C=CC(=O)Nc1cc2c(Nc3ccc(OCc4cccc(C)n4)c(Cl)c3)ncnc2cc1O[C@@H]1CCN(C)C1 [compound 140] | 100 to 200 | 300 to 500 | 300 to 500 | 100 to 200 | 100 to 200 | 300 to 500 | 100 to 200 | 300 to 500
15 | C=CC(=O)Nc1cc2c(Nc3ccc(OCc4ccccn4)c(Cl)c3)ncnc2cc1OCCN1CC2(CN(C)C2)C1 [compound 119, N-(4-((3-chloro-4-(pyridin-2-ylmethoxy)phenyl)amino)-7-(2-(6-methyl-2,6-diazaspiro[3.3]heptan-2-yl)ethoxy)quinazolin-6-yl)acrylamide] | 50 to 100 | 300 to 500 | 100 to 200 | 50 to 100 | 50 to 100 | 300 to 500 | 50 to 100 | 100 to 200

Results, then the compound that gave them:

Row | IC50 [1] [nM] | IC50 [2] [nM] | IC50 [3] [nM] | IC50 [4] [nM] | IC50 [5] [nM] | IC50 [6] [nM] | IC50 [7] [nM] | IC50 [8] [nM] | SMILES
16 | 30 to 50 | 200 to 300 | 200 to 300 | 30 to 50 | 20 to 30 | 200 to 300 | 20 to 30 | 200 to 300 | C=CC(=O)Nc1cc2c(Nc3ccc(OCc4ccccn4)c(Cl)c3)ncnc2cc1OC1CCN(C)CC1 [compound 110, N-(4-((3-chloro-4-(pyridin-2-ylmethoxy)phenyl)amino)-7-((1-methylpiperidin-4-yl)oxy)quinazolin-6-yl)acrylamide]
17 | 10 to 20 | 500 to 1000 | 50 to 100 | 10 to 20 | 30 to 50 | 500 to 1000 | 30 to 50 | 50 to 100 | C=CC(=O)Nc1cc2c(Nc3ccc(OCc4cccc(F)n4)c(Cl)c3)ncnc2cc1OCCCN1CCOCC1 [compound 153]
18 | 5 to 10 | 200 to 300 | 10 to 20 | 5 to 10 | 30 to 50 | 200 to 300 | 30 to 50 | 10 to 20 | CC#CC(=O)Nc1cc2c(Nc3ccc(OCc4cnccn4)c(Cl)c3)ncnc2cc1OCCCN1CCOCC1 [compound 170, N-(4-((3-chloro-4-(pyrazin-2-ylmethoxy)phenyl)amino)-7-(3-morpholinopropoxy)quinazolin-6-yl)but-2-ynamide]
19 | 20 to 30 | 200 to 300 | 50 to 100 | 20 to 30 | 30 to 50 | 200 to 300 | 30 to 50 | 50 to 100 | CC#CC(=O)Nc1cc2c(Nc3ccc(OCc4ncccn4)c(Cl)c3)ncnc2cc1OCCCN1CCOCC1 [compound 168, N-(4-((3-chloro-4-(pyrimidin-2-ylmethoxy)phenyl)amino)-7-(3-morpholinopropoxy)quinazolin-6-yl)but-2-ynamide]
20 | 20 to 30 | > 1000 | 100 to 200 | 20 to 30 | 30 to 50 | > 1000 | 30 to 50 | 100 to 200 | C=CC(=O)Nc1cc2c(Nc3ccc(OCc4cnccn4)c(Cl)c3)ncnc2cc1OCCN1CCOCC1 [compound 176]
21 | 20 to 30 | 500 to 1000 | 100 to 200 | 20 to 30 | 30 to 50 | 500 to 1000 | 30 to 50 | 100 to 200 | C=CC(=O)Nc1cc2c(Nc3ccc(OCc4cnccn4)c(Cl)c3)ncnc2cc1OCCN1CCN(C)CC1 [compound 180]
22 | 10 to 20 | > 1000 | 30 to 50 | 10 to 20 | 30 to 50 | > 1000 | 30 to 50 | 30 to 50 | C=CC(=O)Nc1cc2c(Nc3ccc(OCc4cnccn4)c(Cl)c3)ncnc2cc1OCCCN1CCOCC1 [compound 169]
23 | 10 to 20 | 500 to 1000 | 100 to 200 | 10 to 20 | 50 to 100 | 500 to 1000 | 50 to 100 | 100 to 200 | C=CC(=O)Nc1cc2c(Nc3ccc(OCc4ccccn4)c(Cl)c3)ncnc2cc1C#CC1CCCN1 (stereo not shown) [compound 83, N-(4-((3-chloro-4-(pyridin-2-ylmethoxy)phenyl)amino)-7-(pyrrolidin-2-ylethynyl)quinazolin-6-yl)acrylamide]
